Test results as given in article PMC9822352, “Design, Synthesis and Evaluation of New Multifunctional Benzothiazoles as Photoprotective, Antioxidant and Antiproliferative Agents” (Molecules, 2022).

Assays:
melanoma Colo-38 cells = assay: Cell growth inhibition assay, Colo-38; format: cell-based, human; details: for IC50: Homo sapiens, 24 h incubation, cell count; for SI Colo-38 (selectivity index): IC50 HaCat / IC50 Colo-38
Procedure: All synthesized compounds were tested in order to evaluate their in vitro antiproliferative activity. The human melanoma Colo-38 cell line was selected as a tumor skin model, while the immortalized human HaCaT keratinocytes were chosen as a control for the evaluation of the cytotoxicity towards non-cancerous cells and of the selectivity towards tumor cell lines. […] The selectivity index (SI) was also calculated and is the ratio between the IC50 of a given compound towards the non-cancerous cell line and the IC50 of the same compound towards the tumor cell line.
Cell growth inhibition assays were carried out using human melanoma Colo-38 cells and skin HaCat keratinocytes cells. Human melanoma Colo-38 cells were kindly provided by Dr. Patrizio Giacomini (Laboratory of Immunology, Regina Elena Institute, Rome, Italy). HaCat cells were kindly provided by Istituto Zooprofilattico Sperimentale della Lombardia e dell’Emilia Romagna, Brescia, Italy. Cell lines were seeded using concentrations of 40,000 cells/mL and 25,000 cells/mL, respectively. Colo-38 cells were maintained in RPMI 1640, supplemented with 10% fetal bovine serum (FBS), penicillin (100 Units mL^−1), and streptomycin (100 µg mL^−1). HaCat cells were maintained in DMEM, supplemented with 10% fetal bovine serum (FBS), penicillin (100 Units mL^−1), streptomycin (100 µg mL^−1) and glutamine (2 mM); the incubation was performed at 37 °C in a 5% CO2 atmosphere. Tested compounds were dissolved in MeOH/DMSO (1:1) to obtain 50 mM stock solutions and diluted before cell treatment in MeOH 100%. The tested compounds were added at serial dilutions to the cell cultures (from 0.1 to 100 µM) and incubated for 24 h further. Cells were then harvested, suspended in physiological solution, and counted with a Z2 Coulter Counter (Coulter Electronics, Hialeah, FL, USA). The cell number/mL and the IC50 values were determined when untreated cells were in the log phase of cell growth. Cells treated with vehicles and untreated cells were placed in each plate.

[1] = In vitro filtering parameters of O/W sunscreen formulation containing 3% compound (modified Diffey-Robson, PMMA plates); details: 3% in formulation, before irradiation
Excerpt: All synthesized compounds were formulated at 3% and their photoprotective efficacy, determined by spectrophotometric measurements using the modified Diffey-Robson method, was compared with that of the lead compound PBSA (used at 3% in the same formulation) and using the base without active as a control (Table 2).
The synthesized compounds were incorporated at a concentration of 3% in a typical oil-in-water sunscreen formulation, to evaluate the filtering parameters, and have the following ingredient composition:
INCI (International Nomenclature Cosmetic Ingredients): aqua, glycerin, Euxyl PE 9010, xanthan gum, Tribehenin PEG-20 Esters, cetearyl alcohol, dicaprylyl carbonate, PPG-26-Buteth-26 (and) PEG-40 Hydrogenated Castor Oil (and) water, C12-C15 Alkyl Benzoate, and Sodium hydroxide (sol. 10%).
As previously reported the protocol indicates to spread 32.5 mg of each formulation on 25 cm^2 PMMA plates with the fingers. Each formulation was tested in triplicate, and five measurements were recorded for each dish, following a 15–30 min incubation in the dark at room temperature. UV transmittance data was recorded using a UV-VIS spectrophotometer in the range 290–400 nm. The blank plate, SPF, UVA-PF and critical wavelength were obtained by SPF Calculator software (version 2.1), Shimadzu, Milan, Italy).

[2] = Photostability study of 3% formulation (post-irradiation filtering parameters); details: 3% in formulation; for % SPFeff (residual percentage of SPF in vitro): SPF after/before irradiation × 100; for % UVA-PFeff (residual percentage of UVA-PF): UVA-PF after/before irradiation × 100; for SPF / UVA/UVB / UVAPF / λc: post irradiation
Excerpt: To outline the efficacy and safety profile of a sunscreen formulation, it is essential to provide data relating to photostability. It is possible to provide photodegradation data by recording, pre- and post-irradiation, the transmittance of PMMA plates with finger-coat formulations subjected to a dose of UVA capable of causing erythema, according to the criteria of Garoli et al.. By means of Equations (2) and (3) it was possible to evaluate the residual percentage of SPF in vitro and of UVA-PF for all the prepared formulations. Of greatest interest are the values obtained for the derivatives BZTcin2 and BZTcin4.
To determine the photostability, the previously reported method was adopted, which consists in preparing each plate as mentioned above and subjecting it to solar irradiation quantified as the minimum dose of UVA equivalent to an effective radiant exposure of erythema. The protocol stipulates that, before and after exposure to sunlight, the transmission of the sun protection layer in the range of 290–400 nm is recorded.
Using Equations (2) and (3) below, the residual percentage of SPF in vitro (% SPFeff.) and UVA-PF (% UVA-PFeff.) have been obtained, which, if greater than or equal to 80, can classify a filter as photostable. %SPFeff. = in vitro SPFafter/in vitro SPFbefore × 100(2) %UVA − PFeff. = UVA − PFafter/UVA − PFbefore × 100(3)

[3] = UV spectra in solution (MeOH-DMSO): λmax and molar extinction coefficient; format: physicochemical; details: for ε (molar extinction coefficient): at λmax, Lambert-Beer equation, in M-1 cm-1 (unit assumed); for λmax: solution in MeOH-DMSO, 290–400 nm
Procedure: We next investigated the protective potential against UV radiation of each compound. Specifically, in vitro tests were conducted to determine the parameters related to absorption in the UV spectrum and those fundamental to the relative evaluation of the filtering potential and thus candidature as possible UV sunscreen ingredients of the candidates under examination, including λ critical and SPF (sun protection factor). Since the SPF is correlated to the UV quantitative absorption of the substances, the wavelength of maximum absorption (λmax) and the molar extinction coefficient (ε) of the derivatives in solution (MeOH-DMSO) were evaluated (Figures S1 and S2, Supplementary Materials). The UV spectra of the compounds BZTidr1–6 and BZTcin1–5 were recorded in the UVA-UVB range (290–400 nm) to evaluate their profile and compare it to that of the PBSA, a commercial UVB filter that has a λmax of 302 nm. After this peak, the absorbance of PBSA drops, reaching almost zero in the 325 nm range, and thus not providing absorption in the UVA region.
Once the λmax of each derivative was established, the molar extinction coefficient ε was calculated by applying the Lambert-Beer equation (Table S1, Supplementary Materials): the higher this value, the greater the ability of the compound under examination to absorb UV radiation. […] The excellent values of BZTidr1, BZTidr2 and BZTidr3 are ascribed to the aforementioned hyperchromic shift. In regard to the BZTcin1–5 series, the molar extinction coefficients calculated were very high, and the best values were those of BZTcin1, BZTcin2 and BZTcin3, also attributable to the hyperchromic shift of the absorption spectra. For both series, the excellent absorption capacity of ultraviolet radiation can be traced back to the high π-type conjugation that characterizes them.

IC50 (melanoma Colo-38 cells)	% SPFeff (residual percentage of SPF in vitro) [2]	% UVA-PFeff (residual percentage of UVA-PF) [2]	ε (molar extinction coefficient) [3]	λmax [3]	SMILES	SI Colo-38 (selectivity index) (melanoma Colo-38 cells)	SPF [1]	UVA/UVB [1]	UVAPF0 [1]	λc [1]	SPF [2]	UVA/UVB [2]	UVAPF [2]	λc [2]
8.31 ± 0.76 µM	86.91%	93.25%	22387.64	347.7 nm	O=C(/C=C/c1ccc(O)c(O)c1)Nc1nc2ccccc2s1 [BZTcin4, (E)-N-(benzo[d]thiazol-2-yl)-3-(3,4-dihydroxyphenyl)acrylamide]	4.59	9.70	1.39	11.40	380 nm	8.43	1.39	10.63	380 nm
35.2 ± 5.52 µM	96.00%	85.50%	32240.17	335.6 nm	O=C(/C=C/c1ccc(O)cc1)Nc1nc2ccccc2s1 [BZTcin2, (E)-N-(benzo[d]thiazol-2-yl)-3-(4-hydroxyphenyl)acrylamide]		12.26	1.49	11.79	380 nm	11.77	1.49	10.08	377 nm
10 ± 6.12 µM			20688.20	342.0 nm	COc1ccc(/C=C/C(=O)Nc2nc3ccccc3s2)cc1O [BZTcin5, (E)-N-(benzo[d]thiazol-2-yl)-3-(3-hydroxy-4-methoxyphenyl)acrylamide]	8.33	3.84	1.11	3.61	378 nm	3.51	1.11	3.32	377 nm
92.6 ± 1.68 µM			28637.64	335.3 nm	O=C(N/N=C/c1ccc(O)cc1)c1nc2ccccc2s1 [BZTidr2, (E)-N′-(4-hydroxybenzylidene)benzo[d]thiazole-2-carbohydrazide]		1.85	1.09	1.96	386 nm	1.85	1.09	1.96	386 nm
